Assays:
[1] = tested on: NCI/ADR-RES (Ovarian Cancer); experiment: NCI one dose, NCI/ADR-RES; format: cell-based, human; details: 1.00E-5 Molar one dose
Procedure, shortened: (§1)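 Sulforhodamine B protein staining measured cell growth after cells from the NCI 60-line panel were exposed to compound for 48 h.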

[2] = tested on: HOP-62 (Non-Small Cell Lung Cancer); experiment: NCI one dose, HOP-62; format: cell-based, human; details: HOP-62, 1.00E-5 Molar one dose
Procedure, shortened: as §1

PC-3 (Prostate Cancer) = experiment: NCI one dose, PC-3; format: cell-based, human; details: PC-3, 1.00E-5 Molar one dose
Procedure, shortened: as §1

[3] = tested on: NCI-H460 (Non-Small Cell Lung Cancer); experiment: NCI one dose, NCI-H460; format: cell-based, human; details: NCI-H460, 1.00E-5 Molar one dose
Procedure, shortened: (§2)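 Compounds were screened in the NCI 60-cell-line human cancer panel with a 48 h exposure; cytotoxicity was read by sulforhodamine B staining.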

MDA-MB-435 (Melanoma) = experiment: NCI one dose, MDA-MB-435; format: cell-based, human; details: MDA-MB-435, 1.00E-5 Molar one dose
Procedure, shortened: as §2

UO-31 renal cancer cells = experiment: NCI one dose, UO-31; format: cell-based, human; details: UO-31, 1.00E-5 Molar one dose
Procedure, shortened: as §1

SN12C (Renal Cancer) = experiment: NCI one dose, SN12C; format: cell-based, human; details: 1.00E-5 Molar one dose
Procedure, shortened: as §1

OVCAR-3 (Ovarian Cancer) = experiment: NCI one dose, OVCAR-3; format: cell-based, human; details: OVCAR-3, 1.00E-5 Molar one dose
Procedure, shortened: as §1

UACC-257 melanoma cells = experiment: NCI one dose, UACC-257; format: cell-based, human; details: UACC-257, 1.00E-5 Molar one dose
Procedure, shortened: as §1

[4] = tested on: MDA-MB-468 breast cancer cells; experiment: NCI one dose, MDA-MB-468; format: cell-based, human; details: MDA-MB-468, 1.00E-5 Molar one dose
Procedure, shortened: as §1

BT-549 (Breast Cancer) = experiment: NCI one dose, BT-549; format: cell-based, human; details: BT-549, 1.00E-5 Molar one dose
Procedure, shortened: as §1

T-47D (Breast Cancer) = experiment: NCI one dose, T-47D; format: cell-based, human; details: 1.00E-5 Molar one dose
Procedure, shortened: as §2

SK-MEL-28 (Melanoma) = experiment: NCI one dose, SK-MEL-28; format: cell-based, human; details: SK-MEL-28, 1.00E-5 Molar one dose
Procedure, shortened: as §1

HCC-2998 (Colon Cancer) = experiment: NCI one dose, HCC-2998; format: cell-based, human; details: HCC-2998, 1.00E-5 Molar one dose
Procedure, shortened: as §1

SW-620 (Colon Cancer) = experiment: NCI one dose, SW-620; format: cell-based, human; details: SW-620, 1.00E-5 Molar one dose
Procedure, shortened: as §1

DU-145 (Prostate Cancer) = experiment: NCI one dose, DU-145; format: cell-based, human; details: DU-145, 1.00E-5 Molar one dose
Procedure, shortened: as §1

[5] = target: human farnesyltransferase (FTase) (Homo sapiens, UniProt P49354+P49356); experiment: FTase inhibitory assay (fluorescence, Dansyl-GCVLS); format: biochemical; details: for % FTI: inhibition of human FTase at 100 μM of tested compound, mean of two experiments
Procedure, shortened: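 Partially purified recombinant FTase with Dansyl-GCVLS and farnesyl pyrophosphate in Tris/HCl pH 7.5 (DTT, MgCl2, ZnCl2, octyl-glucoside); fluorescence (ex 340/em 486 nm) read 15 min at 30 °C. IC50 by regression for compounds inhibiting >60% at 100 µM; kinetics varied FPP (Dns-GCVLS 2.5 μM) or peptide (FPP 10 μM).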

CAKI-1 (Renal Cancer) = experiment: NCI one dose, CAKI-1; format: cell-based, human; details: CAKI-1, 1.00E-5 Molar one dose
Procedure, shortened: as §1

TK-10 (Renal Cancer) = experiment: NCI one dose, TK-10; format: cell-based, human; details: TK-10, 1.00E-5 Molar one dose
Procedure, shortened: as §1

MCF7 (Breast Cancer) = experiment: NCI one dose, MCF7; format: cell-based, human; details: MCF7, 1.00E-5 Molar one dose
Procedure, shortened: as §1

RPMI-8226 (Leukemia) = experiment: NCI one dose, RPMI-8226; format: cell-based, human; details: RPMI-8226, 1.00E-5 Molar one dose
Procedure, shortened: as §1

LOX IMVI (Melanoma) = experiment: NCI one dose, LOX IMVI; format: cell-based, human; details: 1.00E-5 Molar one dose
Procedure, shortened: as §1

[6] = tested on: NCI-H522 non-small cell lung cancer cells; experiment: NCI cell proliferation, NCI-H522; format: cell-based, human; details: for inhibition at 10 µM: Homo sapiens, NCI-H522, read-out: % Cancer cell growth Inhibition (NCI-H522); for Growth Percent: NCI-H522, 1.00E-5 Molar one dose
Procedure, shortened: as §2

SF-268 (CNS Cancer) = experiment: NCI one dose, SF-268; format: cell-based, human; details: SF-268, 1.00E-5 Molar one dose
Procedure, shortened: as §1

SNB-75 (CNS Cancer) = experiment: NCI one dose, SNB-75; format: cell-based, human; details: SNB-75, 1.00E-5 Molar one dose
Procedure, shortened: as §1

SK-OV-3 (Ovarian Cancer) = experiment: NCI one dose, SK-OV-3; format: cell-based, human; details: SK-OV-3, 1.00E-5 Molar one dose
Procedure, shortened: as §1

| SMILES | Growth Percent [1] | Growth Percent [2] | Growth Percent (PC-3 (Prostate Cancer)) | Growth Percent [3] | Growth Percent (MDA-MB-435 (Melanoma)) | Growth Percent (UO-31 renal cancer cells) | Growth Percent (SN12C (Renal Cancer)) | Growth Percent (OVCAR-3 (Ovarian Cancer)) | Growth Percent (UACC-257 melanoma cells) | Growth Percent [4] | Growth Percent (BT-549 (Breast Cancer)) | Growth Percent (T-47D (Breast Cancer)) | Growth Percent (SK-MEL-28 (Melanoma)) | Growth Percent (HCC-2998 (Colon Cancer)) | Growth Percent (SW-620 (Colon Cancer)) | Growth Percent (DU-145 (Prostate Cancer)) | % FTI [5] | Growth Percent (CAKI-1 (Renal Cancer)) | Growth Percent (TK-10 (Renal Cancer)) | Growth Percent (MCF7 (Breast Cancer)) | other results |
| --- | --- | --- | --- | --- | --- | --- | --- | --- | --- | --- | --- | --- | --- | --- | --- | --- | --- | --- | --- | --- | --- |
| C[C@@]12SC[C@@H](C(=O)NCc3cccc(C(F)(F)F)c3)N1C(=O)c1ccccc12 [4bD] | 100.57% | 90.69% | 92.84% | 109.48% | 102.18% | 81.22% | 93.35% | 109.46% | 74.68% | 97.93% | 100.02% | 89.18% | 108.59% | 110.65% | 108.66% | 108.47% | 51% | 80.18% | 101.65% | 85.93% | Growth Percent (RPMI-8226 (Leukemia)): 85.05%; Growth Percent (LOX IMVI (Melanoma)): 100.31%; inhibition at 10 µM [6]: 31%; Growth Percent [6]: 68.93%; Growth Percent (SF-268 (CNS Cancer)): 102.43%; Growth Percent (SNB-75 (CNS Cancer)): 93.18%; Growth Percent (SK-OV-3 (Ovarian Cancer)): 97.14% |
| COc1ccc(CNC(=O)[C@@H]2CS[C@@]3(C)c4ccccc4C(=O)N23)cc1 [4bF] | 97.36% | 95.58% | 93.51% | 110.45% | 102.01% | 89.30% | 101.88% | 108.61% | 87.83% | 86.72% | 106.11% | 97.83% | 106.19% | 101.61% | 106.66% | 105.22% | 67% | 85.69% | 99.99% | 90.37% | IC50 ([5]; human FTase in vitro): 9.21 µM; Growth Percent (RPMI-8226 (Leukemia)): 88.87%; Growth Percent (LOX IMVI (Melanoma)): 102.28%; inhibition at 10 µM [6]: 28%; Growth Percent [6]: 72.32%; Growth Percent (SF-268 (CNS Cancer)): 98.37%; Growth Percent (SNB-75 (CNS Cancer)): 94.53%; Growth Percent (SK-OV-3 (Ovarian Cancer)): 106.02% |

From PMC11855478, “Bicyclic N,S-Acetals Containing Fused Cysteine-Amide System as New Heterocyclic Class Targeting Human Farnesyltransferase (FTase-h)” (International Journal of Molecular Sciences, 2025)
